Reference: BindingDB's records for PubMed 7965746 (U. 109, 1994)
Values joined by “and” are separate entries in the source; they are usually repeats but may differ in a detail not shown here. Equal values may be shown once.

Biological target: Hrh3 protein (Rattus norvegicus, UniProt Q5PPG3)
Sequence (Q5PPG3 whole entry): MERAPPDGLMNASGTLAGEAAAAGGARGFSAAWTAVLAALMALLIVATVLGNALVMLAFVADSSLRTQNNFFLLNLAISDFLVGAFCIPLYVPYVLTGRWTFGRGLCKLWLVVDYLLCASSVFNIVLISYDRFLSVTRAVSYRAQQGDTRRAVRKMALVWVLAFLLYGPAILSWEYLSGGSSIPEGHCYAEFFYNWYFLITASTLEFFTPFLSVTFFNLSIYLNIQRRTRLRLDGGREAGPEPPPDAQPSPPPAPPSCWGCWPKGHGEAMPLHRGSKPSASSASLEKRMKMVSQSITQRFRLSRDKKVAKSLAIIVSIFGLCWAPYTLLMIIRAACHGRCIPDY

Row | Structure (SMILES) | Ki
1 | CCCCCCC(=O)N1CCC(c2cnc[nH]2)CC1 [Carboperamide] | 6.1 nM and 20 nM
2 | C[C@@H](N)Cc1c[nH]cn1 | 4 nM and 0.5 nM
3 | N=C(N)SCCc1cnc[nH]1 [2-(3H-imidazol-4-yl)ethylsulfanylmethanimidamide] | 0.15 nM and 1 nM and 0.1 nM
4 | C[C@H](N)Cc1c[nH]cn1 [CAS_75614-93-6] | 77 nM and 470 nM and 50 nM
5 | CNC(=S)NCCCCc1cnc[nH]1 [1-[4-(1H-imidazol-5-yl)butyl]-3-methylthiourea] | 68 nM and 70 nM and 180 nM
6 | S=C(NC1CCCCC1)N1CCC(c2cnc[nH]2)CC1 | 4 nM and 2 nM
7 | Cc1[nH]cnc1CSCCNC(=N)NCCCc1c[nH]cn1 [2-[3-(1H-imidazol-5-yl)propyl]-1-(2-{[(5-methyl-1H-imidazol-4-yl)methyl]sulfanyl}ethyl)guanidine] | 75 nM and 65 nM and 45 nM
